Tests used:
[1] = system: LS-174T human colon carcinoma cells; assay: LS-174T tumor growth and antisense treatment; type: in vivo, athymic mice; conditions: single s.c. dose 1 mg per mouse, FIG. 1
Experimental: LS-174T human colon carcinoma cells (1×10^6 cells) were inoculated subcutaneously (s.c.) into the left flank of athymic mice. A single dose of RIα antisense hybrid (Oligo 165, SEQ ID NO:4), inverted hybrid (Oligo 166, SEQ ID NO:6), or antisense (Oligo 164, SEQ ID NO:1) oligonucleotides or control oligonucleotide (Oligo 169, SEQ ID NO:7); Oligo 168 (SEQ ID NO:5); Oligo 188, (SEQ ID NO:3) as shown in Table 1 (1 mg per 0.1 ml saline per mouse), or saline (0.1 ml per mouse), was injected s.c. into the right flank of mice when tumor size reached 80 to 100 mg, about 1 week after cell inoculation. Tumor volumes were obtained from daily measurement of the longest and shortest diameters and calculation by the formula, 4/3πr^3 where r=(length+width)/4. At each indicated time, two animals from the control and antisense-treated groups were killed, and tumors were removed and weighed.

[2] = system: ZR75-1 human breast cancer cells; assay: Soft agar growth of ZR75-1 cells; type: cell-based
Experimental: (§1) Cells (10^4 cells/well) were seeded in 0.5 ml of 0.3% Difco Noble agar (Difco, Detroit, Mich.) supplemented with complete culture medium. This suspension was layered over 0.5 ml of 0.8% agar-medium base layer in 24 multiwell cluster dishes (Becton Dickinson) and treated with various concentrations of docetaxel (day 0). […] Twelve days after the last treatment, cells were stained with nitroblue tetrazolium (Sigma) and colonies larger than 0.05 mm were counted.
as §1
(§2) Soft agar growth. Cells (10^4 cells/well) were seeded in 0.5 ml of 0.3% Difco Noble agar (Difco, Detroit, Mich.) supplemented with complete culture medium. This suspension was layered over 0.5 ml of 0.8% agar-medium base layer in 24 multiwell cluster dishes (Becton Dickinson) and treated with various concentrations of docetaxel (day 0). The HYB 165 was added after 12 hrs (day 1) and on day 3. Twelve days after the last treatment, cells were stained with nitroblue tetrazolium (Sigma) and colonies larger than 0.05 mm were counted.
as §2, with “508” for “165”, “hrs” for “hrs (day 1)”, “2, 3 and 4. After 12” for “3. Twelve”, “days” for “days after”, “the” for “the last treatment,”
Soft agar growth. Cells (10^4 cells/well) were seeded in 0.5 ml of 0.3% Difco Noble agar (Difco, Detroit, Mich.) supplemented with complete culture medium. […] After 12 days the cells were stained with nitroblue tetrazolium (Sigma) and colonies larger than 0.05 mm were counted.
as §2, with “of” for “of docetaxel (day 0). The”, “or HYB295 every 48 hours for three times. After” for “was added after”, “12” for “12 hrs (day 1) and on day 3. Twelve”, “days” for “days after”, “the” for “the last treatment,”, “(Sigma, St. Louis, Mo.)” for “(Sigma)”
as §2, with “of” for “of docetaxel (day 0). The”, “or HYB508 every 48 hours for three times. After” for “was added after”, “12” for “12 hrs (day 1) and on day 3. Twelve”, “days” for “days after”, “the” for “the last treatment,”, “(Sigma, St. Louis, Mo.)” for “(Sigma)”

[3] = system: AR; assay: Histochemical analysis of GEO tumors: AR; type: in vivo; conditions: single agent, after two cycles
From the text: (§3) Tumor specimens from the different groups of mice were examined by histochemical analysis at different time points to evaluate the expression of a variety of biological parameters.
(§4) TGFα and AR are growth factors which bind to EGFR and control human colon cancer growth through autocrine and paracrine mechanisms (F. Ciardiello and G. Tortora, Clin. Cancer Res. 4:821–828 (1998); D. S. Salomon, Crit. Rev. Oncol. Hematol. 19:183–232 (1995)).

[4] = system: GEO human colon cancer cells; assay: Soft agar growth of GEO cells; type: cell-based
Experimental: as §2, with “Cells” for “Soft agar growth. Cells”, “paclitaxel” for “docetaxel”, “2, 3 and 4. 12” for “3. Twelve”

[5] = system: Factor VIII related antigen; assay: Tumor-induced neovascularization (anti-Factor VIII related antigen immunohistochemistry); type: in vivo; conditions: single agent, vs untreated mice or scramble MBO
From the text: In recent years, the critical role of tumor-induced neovascularization in neoplastic development, progression and metastasis has been elucidated (J. I. Fokman, In: J. Mendelsohn et al., eds., The Molecular Basis of Cancer, pp 206–232, Philadelphia: W B Saunders (1995) . A reliable histologic estimate of novel blood vessels on tumor specimens is the microvessel count (MVC) in the most intense areas of neovascularization. In the present study, tumor-induced neovascularization was quantified by immunohistochemistry using an anti-Factor VIII related antigen monoclonal antibody (N. Weidner, Breast Cancer Res. Treat., 36:169–180 (1995)).

[6] = system: p27; assay: Histochemical analysis of GEO tumors: p27; type: in vivo; conditions: single agent
From the text: Tumor specimens from the different groups of mice were examined by histochemical analysis at different time points to evaluate the expression of a variety of biological parameters. […] No other treatment was able to affect RIα expression.
Loda et al. (Nature Medicine 3:231–234 (1997)) discloses that the cyclin-dependent kinase (CDK) inhibitor p27 is […] related to cell entry into S phase and proliferation and that reduction of its expression correlates with poor prognosis in colon cancer patients.

[7] = system: GEO colon cancer xenografts; assay: GEO colon cancer xenografts in nude mice (tumor growth, survival); type: in vivo; conditions: single agent
Experimental: We investigated the antitumor activity of HYB 165 (AS RIα) in nude mice bearing GEO colon cancer xenografts, using either the intraperitoneal (i.p.) or the oral route of administration. When established GEO tumors of approximately […] were detectable, groups of 10 mice were treated i.p. with either HYB 165 or a control modified backbone oligonucleotide with a scrambled sequence, at 5 or 10 mg/kg/dose, daily on days 7 to 11 and 14 to 18. […] The control oligonucleotide produced no inhibition at 10 mg/kg/dose.
Following oral administration, modified backbone oligonucleotides (MBOs) are absorbed in the upper and lower part of the GI tract and distributed to major organs (S. Agrawal and R. Zhang, In: Antisense Research and Application, S. T. Crooke, ed.), Handbook of Experimental Pharmacology, Springer, Berlin, p. 525–543 (1998). Therefore, HYB 165 and the control oligonucleotide were administered to GEO tumor-bearing mice as described above, except that HYB 165 and the control oligonucleotide were administered orally.
On day 7 after tumor cell injection, one group of 10 mice was treated with taxol (20 mg/kg/dose, i.p.), and the treatment was repeated every 2 weeks (on day 21 and day 35) for a total of three cycles. Two other groups of mice were treated with either HYB 165 (AS RIα) or a control MBO with a scrambled sequence (10 mg/kg/dose, p.o.), daily for five days (days 8–12). Treatment was repeated every 2 weeks (days 22–26 and days 36–40) for a total of three cycles. Two more groups of mice were treated with taxol and either HYB 165 or the control MBO, administering the taxol (20 mg/kg/dose, i.p.) on day 7, followed by oral administration of either HYB 165 or the control MBO daily for five days (days 8–12). The sequential treatment was repeated with the same schedule every 2 weeks for a total of three cycles.

[8] = system: TGFα; assay: Histochemical analysis of GEO tumors: TGFα; type: in vivo; conditions: single agent, after two cycles
From the text: as §3, §4

**Q.** How did the “size of the tumor” value [1] turn out when “Oligo 166: Inverted hybrid antisense 18-mer GCG TGC CUC CUC ACT GGC, SEQ ID NO:6 (antisense GCGTGCCUCCUCACTGGC; inverted hybrid: 2'-O-methyl ribonucleotide middle segment, DNA flanks, exact positions not given here)” was run?
**A.** smaller from three days after injection onward than the phosphorothioate oligonucleotide 164

**Q.** `CC(=O)O[C@@]12CO[C@@H]1C[C@H](O)[C@@]1(C)C(=O)[C@H](O)C3=C(C)[C@@H](OC(=O)[C@H](O)[C@@H](NC(=O)OC(C)(C)C)c4ccccc4)C[C@@](O)([C@@H](OC(=O)c4ccccc4)[C@H]21)C3(C)C` [docetaxel, reference compound] was tested. Which inhibition at 10 pM ([2]; Homo sapiens, ZR-75-1, docetaxel 0.01 nM alone (Examples 13, 14)) did it give?
**A.** < 12%

**Q.** What about the inhibition at 10 pM ([2]; Homo sapiens, ZR-75-1, docetaxel 0.01 nM alone (Examples 21, 22)) of the same compound?
**A.** < 15%

**Q.** And the inhibition at 30 pM ([2]; Homo sapiens, ZR-75-1, docetaxel 0.03 nM alone (Examples 21, 22))?
**A.** ~40%

**Q.** What about the inhibition at 0.0001 µM ([2]; Homo sapiens, ZR-75-1, docetaxel 0.1 nM alone (Examples 21, 22)) of the same compound?
**A.** ~72%

**Q.** And the inhibition at 0.0003 µM ([2]; Homo sapiens, ZR-75-1, docetaxel 0.3 nM alone (Examples 21, 22))?
**A.** ~85%

**Q.** And the growth inhibition ([2]; docetaxel alone, doses ranging between 0.01 and 0.3 nM, maximum)?
**A.** up to 80%

**Q.** “Oligo 168: Mismatched hybrid control GCG CGC CTC CTC GCU GGC, SEQ ID NO:5 (GCGCGCCTCCTCGCUGGC; hybrid: 2'-O-methyl ribonucleotide ends, DNA middle, exact positions not given here) [reference compound]” was tested. Which “size of the tumor” value [1] did it give?
**A.** little ability to keep tumor size at a minimum relative to the hybrid and inverted hybrid oligonucleotides

**Q.** How did the “expression of AR” value [3] turn out when `CC(=O)O[C@H]1C(=O)[C@@]2(C)[C@H]([C@H](OC(=O)c3ccccc3)[C@]3(O)C[C@H](OC(=O)[C@H](O)[C@@H](NC(=O)c4ccccc4)c4ccccc4)C(C)=C1C3(C)C)[C@]1(OC(C)=O)CO[C@@H]1C[C@@H]2O` [paclitaxel, reference compound] was run?
**A.** Unlike taxol, treatment with HYB 165 inhibited the expression of TGF α and AR

**Q.** What about the inhibition at 0.001 µM ([4]; Homo sapiens, paclitaxel 1 nM alone) of the same compound?
**A.** < 5%

**Q.** And the inhibition at 0.005 µM ([4]; Homo sapiens, paclitaxel 5 nM alone)?
**A.** ~20%

**Q.** What about the inhibition at 0.01 µM ([4]; Homo sapiens, paclitaxel 10 nM alone) of the same compound?
**A.** ~58%

**Q.** What about the growth inhibition ([4]; paclitaxel alone, doses ranging between 0.1 and 10 nM, maximum) of the same compound?
**A.** up to 60%

**Q.** What about the “inhibition of staining (microvessel count)” value [5] of the same compound?
**A.** over 60%

**Q.** What about the p27 expression [6] of the same compound?
**A.** Unlike taxol, HYB 165 alone is able to increase p27 expression

**Q.** And the tumor growth ([7]; three cycles (taxol 20 mg/kg/dose i.p.; MBO 10 mg/kg/dose p.o.), FIG. 17A)?
**A.** inhibited tumor growth

**Q.** And the survival time ([7]; three cycles, FIG. 17B)?
**A.** slight increase in survival time

**Q.** What about the “expression of TGFα” value [8] of the same compound?
**A.** Unlike taxol, treatment with HYB 165 inhibited the expression of TGF α and AR
